Article PMC11012124, “Synthesis of Novel Triazine-Based Chalcones and 8,9-dihydro-7H-pyrimido[4,5-b][1,4]diazepines as Potential Leads in the Search of Anticancer, Antibacterial and Antifungal Agents” (International Journal of Molecular Sciences, 2024)

What was measured:
PC-3 = assay: cells; settings: Homo sapiens, PC-3, 48 h; for CC50: read-out: LC50
ACHN = assay: cells; settings: Homo sapiens, 48 h; for CC50: read-out: LC50
MOLT-4 = assay: cells; settings: Homo sapiens, MOLT-4, 48 h; for CC50: read-out: LC50
U251 = assay: cells; settings: Homo sapiens, U-251, 48 h; for GI50: U251, 48 h; for CC50: read-out: LC50
[1] = Hemolytic activity, spectrophotometric; format: cell-based, human; settings: human, human red blood cells (huRBC), 5% hematocrit, 200 μg/mL, 37 °C
A549/ATCC = assay: cells; settings: Homo sapiens, A549, 48 h; for CC50: read-out: LC50
LOX IMVI = assay: cells; settings: Homo sapiens, 48 h; for CC50: read-out: LC50, LOX IMVI, 48 h
SK-MEL-28 = assay: cells; settings: Homo sapiens, SK-MEL-28, 48 h; for CC50: read-out: LC50
KM12 = assay: cells; settings: Homo sapiens, KM12, 48 h; for CC50: read-out: LC50
SK-MEL-5 = assay: cells; settings: Homo sapiens, SK-MEL-5, 48 h; for CC50: read-out: LC50
MDA-MB-231/ATCC = assay: cells; settings: Homo sapiens, MDA-MB-231, 48 h; for CC50: read-out: LC50
RXF 393 = assay: cells; settings: Homo sapiens, RXF 393, 48 h; for CC50: read-out: LC50
UO-31 = assay: cells; settings: Homo sapiens, UO-31, 48 h; for CC50: read-out: LC50
T-47D = assay: cells; settings: Homo sapiens, T47D, 48 h; for CC50: read-out: LC50
IGROV1 = assay: cells; settings: Homo sapiens, IGROV-1, 48 h; for CC50: read-out: LC50
HCC-2998 = assay: cells; settings: Homo sapiens, HCC 2998, 48 h; for CC50: read-out: LC50
SK-MEL-2 = assay: cells; settings: Homo sapiens, SK-MEL-2, 48 h; for CC50: read-out: LC50
COLO 205 = assay: cells; settings: Homo sapiens, COLO 205, 48 h; for CC50: read-out: LC50
SW-620 = assay: cells; settings: Homo sapiens, SW-620, 48 h; for CC50: read-out: LC50
OVCAR-3 = assay: cells; settings: Homo sapiens, OVCAR-3, 48 h; for CC50: read-out: LC50
HOP-62 = assay: cells; settings: Homo sapiens, HOP-62, 48 h; for CC50: read-out: LC50
SF-295 = assay: cells; settings: Homo sapiens, SF-295, 48 h; for CC50: read-out: LC50
SF-268 = assay: cells; settings: Homo sapiens, SF-268, 48 h; for CC50: read-out: LC50
NCI-H460 = assay: cells; settings: Homo sapiens, NCI-H460, 48 h; for CC50: read-out: LC50
HCT-15 = assay: cells; settings: Homo sapiens, HCT-15, 48 h; for CC50: read-out: LC50
786-0 = assay: cells; settings: Homo sapiens, 786-0, 48 h; for CC50: read-out: LC50
CAKI-1 = assay: cells; settings: Homo sapiens, CAKI-1, 48 h; for CC50: read-out: LC50
OVCAR-5 = assay: cells; settings: Homo sapiens, OVCAR-5, 48 h; for CC50: read-out: LC50
HOP-92 = assay: cells; settings: Homo sapiens, HOP-92, 48 h; for CC50: read-out: LC50
EKVX = assay: cells; settings: Homo sapiens, 48 h; for CC50: read-out: LC50
K-562 = assay: cells; settings: Homo sapiens, K562, 48 h; for GI50: K-562, 48 h; for CC50: read-out: LC50
CCRF-CEM = assay: cells; settings: Homo sapiens, 48 h; for CC50: read-out: LC50
HCT-116 = assay: cells; settings: Homo sapiens, HCT-116, 48 h; for CC50: read-out: LC50
SK-OV-3 = assay: cells; settings: Homo sapiens, SK-OV-3, 48 h; for CC50: read-out: LC50
A498 = assay: cells; settings: Homo sapiens, A498, 48 h; for CC50: read-out: LC50
HT29 = assay: cells; settings: Homo sapiens, HT-29, 48 h; for CC50: read-out: LC50
NCI-H23 = assay: cells; settings: Homo sapiens, NCI-H23, 48 h; for CC50: read-out: LC50
MALME-3M = assay: cells; settings: Homo sapiens, 48 h; for CC50: read-out: LC50

CN(C)c1nc(NCCNS(=O)(=O)c2ccc(C(=O)/C=C/c3ccccc3)cc2)nc(Nc2ccc(F)cc2)n1 [24a]
GI50 (PC-3): 4.39 µM | CC50 (PC-3): > 100 µM | GI50 (ACHN): 4.92 µM | CC50 (ACHN): 43.5 µM | GI50 (MOLT-4): 3.22 µM | CC50 (MOLT-4): > 100 µM | GI50 (U251): 10.4 µM | CC50 (U251): 57.8 µM | hemolysis at 24 h, 200 µg/mL [1]: 10.6% | GI50 (A549/ATCC): 8.33 µM | CC50 (A549/ATCC): 73.5 µM | GI50 (LOX IMVI): 2.47 µM | CC50 (LOX IMVI): 27.4 µM | GI50 (SK-MEL-28): 10.2 µM | CC50 (SK-MEL-28): 48.4 µM | GI50 (KM12): 3.74 µM | CC50 (KM12): 54 µM | GI50 (SK-MEL-5): 4.7 µM | CC50 (SK-MEL-5): 41.6 µM | GI50 (MDA-MB-231/ATCC): 4.84 µM | CC50 (MDA-MB-231/ATCC): 45.8 µM | GI50 (RXF 393): 2.94 µM | CC50 (RXF 393): 39.9 µM | GI50 (UO-31): 4.6 µM | CC50 (UO-31): 41.9 µM | GI50 (T-47D): 3.45 µM | CC50 (T-47D): 41.7 µM | GI50 (IGROV1): 11.2 µM | CC50 (IGROV1): 50.6 µM | GI50 (HCC-2998): 2.35 µM | CC50 (HCC-2998): 17.9 µM | GI50 (SK-MEL-2): 10.6 µM | CC50 (SK-MEL-2): 55.4 µM | GI50 (COLO 205): 5.46 µM | CC50 (COLO 205): 56.7 µM | GI50 (SW-620): 5.56 µM | CC50 (SW-620): 54.3 µM | GI50 (OVCAR-3): 8.59 µM | CC50 (OVCAR-3): 48.7 µM | GI50 (HOP-62): 11.8 µM | CC50 (HOP-62): 60.6 µM | GI50 (SF-295): 6.96 µM | CC50 (SF-295): 44.5 µM | GI50 (SF-268): 5.65 µM | CC50 (SF-268): 65.2 µM | GI50 (NCI-H460): 4.34 µM | CC50 (NCI-H460): 56.5 µM | GI50 (HCT-15): 2.04 µM | CC50 (HCT-15): 7.25 µM | GI50 (786-0): 11.2 µM | CC50 (786-0): 56.9 µM | GI50 (CAKI-1): 4.75 µM | CC50 (CAKI-1): 52.6 µM | GI50 (OVCAR-5): 13.3 µM | CC50 (OVCAR-5): 53.2 µM | GI50 (HOP-92): 8.1 µM | CC50 (HOP-92): 60.1 µM | GI50 (EKVX): 4.48 µM | CC50 (EKVX): 40.6 µM | GI50 (K-562): 3.34 µM | CC50 (K-562): > 100 µM | GI50 (CCRF-CEM): 6.59 µM | CC50 (CCRF-CEM): > 100 µM | GI50 (HCT-116): 1.72 µM | CC50 (HCT-116): 6.1 µM | GI50 (SK-OV-3): 13 µM | CC50 (SK-OV-3): 68.1 µM | GI50 (A498): 11.6 µM | CC50 (A498): 49.7 µM | GI50 (HT29): 3.08 µM | CC50 (HT29): 73.5 µM | GI50 (NCI-H23): 10.1 µM | CC50 (NCI-H23): 50 µM | GI50 (MALME-3M): 12.6 µM | CC50 (MALME-3M): 54.5 µM

Cc1ccc(/C=C/C(=O)c2ccc(S(=O)(=O)NCCNc3nc(Nc4ccc(F)cc4)nc(N(C)C)n3)cc2)cc1 [24b]
GI50 (PC-3): 3.54 µM | CC50 (PC-3): 89.5 µM | GI50 (ACHN): 6.31 µM | CC50 (ACHN): 44.1 µM | GI50 (MOLT-4): 3.86 µM | CC50 (MOLT-4): > 100 µM | GI50 (U251): 11.6 µM | CC50 (U251): 58.7 µM | hemolysis at 24 h, 200 µg/mL [1]: 1.2% | GI50 (A549/ATCC): 10.5 µM | CC50 (A549/ATCC): 77.7 µM | GI50 (LOX IMVI): 4.12 µM | CC50 (LOX IMVI): 39.3 µM | GI50 (SK-MEL-28): 11.3 µM | CC50 (SK-MEL-28): 49.6 µM | GI50 (KM12): 5.41 µM | CC50 (KM12): 99.7 µM | GI50 (SK-MEL-5): 8.25 µM | CC50 (SK-MEL-5): 45.9 µM | GI50 (MDA-MB-231/ATCC): 6.56 µM | CC50 (MDA-MB-231/ATCC): 48 µM | GI50 (RXF 393): 4.98 µM | CC50 (RXF 393): 44.9 µM | GI50 (UO-31): 6.77 µM | CC50 (UO-31): 44.7 µM | GI50 (T-47D): 3.86 µM | CC50 (T-47D): 52.7 µM | GI50 (IGROV1): 15.1 µM | CC50 (IGROV1): 63.6 µM | GI50 (HCC-2998): 4.5 µM | CC50 (HCC-2998): 41 µM | GI50 (SK-MEL-2): 11.2 µM | CC50 (SK-MEL-2): 52.3 µM | GI50 (COLO 205): 6.51 µM | CC50 (COLO 205): 55.1 µM | GI50 (SW-620): 7.53 µM | CC50 (SW-620): 49.4 µM | GI50 (OVCAR-3): 11.3 µM | CC50 (OVCAR-3): 54.6 µM | GI50 (HOP-62): 15.3 µM | CC50 (HOP-62): 64.8 µM | GI50 (SF-295): 11.5 µM | CC50 (SF-295): 49.2 µM | GI50 (SF-268): 8.76 µM | CC50 (SF-268): 90.9 µM | GI50 (NCI-H460): 4.22 µM | CC50 (NCI-H460): 52.3 µM | GI50 (HCT-15): 3.92 µM | CC50 (HCT-15): 35.3 µM | GI50 (786-0): 10.5 µM | CC50 (786-0): 51 µM | GI50 (CAKI-1): 6.98 µM | CC50 (CAKI-1): 58 µM | GI50 (OVCAR-5): 14.9 µM | CC50 (OVCAR-5): 53.7 µM | GI50 (HOP-92): 7.63 µM | CC50 (HOP-92): 54 µM | GI50 (EKVX): 4.96 µM | CC50 (EKVX): 43.3 µM | GI50 (K-562): 3.89 µM | CC50 (K-562): > 100 µM | GI50 (CCRF-CEM): 5.28 µM | CC50 (CCRF-CEM): > 100 µM | GI50 (HCT-116): 1.75 µM | CC50 (HCT-116): 6.17 µM | GI50 (SK-OV-3): 17 µM | CC50 (SK-OV-3): > 100 µM | GI50 (A498): 12.6 µM | CC50 (A498): 51.4 µM | GI50 (HT29): 2.38 µM | CC50 (HT29): 16.2 µM | GI50 (NCI-H23): 11.3 µM | CC50 (NCI-H23): 50 µM | GI50 (MALME-3M): 16.4 µM | CC50 (MALME-3M): 60.9 µM
